The target of data set [1] is T1, RyR2 (Mus musculus, UniProt E9Q401).
T1 construct: spontaneous openings of intracellular RyR2 Ca^2+ release channels; endogenous in cells; host or cells: ventricular cardiomyocytes isolated from Casq2-/- mice (saponin-permeabilized in A1, intact in A7)
Put plainly: Calcium spark frequency in permeabilized Casq2 knockout cardiomyocytes (screen for RyR2 activity). In kind it is cell-based. How it is done: FIGS. 3(A)-3(E) show a biological screen for cardiac ryanodine receptor (RyR2) activity. Note that ‘ent-24’=9, and ‘ent-18’ refers to structure 8 in FIG. 1, which is also the enantiomer of a natural product. (3A) Calcium spark frequency in permeabilized murine cardiomyocytes was recorded as an index of RyR2 activity. Compounds were screened at 25 uM concentration after 10-minute incubation. *=p<0.001 by one-way ANOVA with Tukey's post-hoc test. (3B) Incubation time was extended to 60 minutes for the 12- and 30-membered rings. (3C) The seco-acid precursors to 12- and 18-membered rings were tested at 25 uM. (3D) Concentration response curve for the 18-membered ring and (3E) 24-membered ring. Cells were incubated for 30 minutes
Activity of Ring-Size Analogues. […] Ventricular cardiomyocytes were isolated, permeabilized with saponin, and incubated with vehicle (DMSO) or 25 μM of selected compound. RyR2 activity was measured in the form of calcium sparks, which are elementary Ca^2+ release events generated by spontaneous openings of intracellular RyR2 Ca^2+ release channels. Importantly, saponin selectively permeabilizes the sarcolemmal membrane, leaving the SR membrane intact and ensuring equivalent access of the compounds to the SR membrane where RyR2 resides.
The compounds were first screened by incubating cardiomyocytes for 10 minutes at 25 μM concentration and compared to vehicle (DMSO) conditions.

Data set [2] relates to mammalian cardiac ryanodine receptor (RyR2). The following applies: cited from earlier work.
Data set [3] deals with T2, RyR2 (Sus scrofa, UniProt A0A5G2R1W3).
T2 construct: isolated SR vesicles derived from porcine cardiac muscle; from tissue; host or cells: porcine heart (cardiac sarcoplasmic reticulum vesicles)
The following applies: read-out: IC50, ryanodine binding assay (ent-1 comparison); cited from earlier work.

Data set [4] has as its target T1, RyR2. The following applies: read-out: IC50, intact cardiomyocyte assay (ent-1 comparison); cited from earlier work.
For data set [5] the following is noted: cited from earlier work.
For data set [6], the system named is Casq2-/- mice. The settings on record: cited from earlier work.

pIC50: −log10 of the molar value. Like-named read-outs stand apart in the source and are kept apart here.

T1 sequence (E9Q401 whole entry): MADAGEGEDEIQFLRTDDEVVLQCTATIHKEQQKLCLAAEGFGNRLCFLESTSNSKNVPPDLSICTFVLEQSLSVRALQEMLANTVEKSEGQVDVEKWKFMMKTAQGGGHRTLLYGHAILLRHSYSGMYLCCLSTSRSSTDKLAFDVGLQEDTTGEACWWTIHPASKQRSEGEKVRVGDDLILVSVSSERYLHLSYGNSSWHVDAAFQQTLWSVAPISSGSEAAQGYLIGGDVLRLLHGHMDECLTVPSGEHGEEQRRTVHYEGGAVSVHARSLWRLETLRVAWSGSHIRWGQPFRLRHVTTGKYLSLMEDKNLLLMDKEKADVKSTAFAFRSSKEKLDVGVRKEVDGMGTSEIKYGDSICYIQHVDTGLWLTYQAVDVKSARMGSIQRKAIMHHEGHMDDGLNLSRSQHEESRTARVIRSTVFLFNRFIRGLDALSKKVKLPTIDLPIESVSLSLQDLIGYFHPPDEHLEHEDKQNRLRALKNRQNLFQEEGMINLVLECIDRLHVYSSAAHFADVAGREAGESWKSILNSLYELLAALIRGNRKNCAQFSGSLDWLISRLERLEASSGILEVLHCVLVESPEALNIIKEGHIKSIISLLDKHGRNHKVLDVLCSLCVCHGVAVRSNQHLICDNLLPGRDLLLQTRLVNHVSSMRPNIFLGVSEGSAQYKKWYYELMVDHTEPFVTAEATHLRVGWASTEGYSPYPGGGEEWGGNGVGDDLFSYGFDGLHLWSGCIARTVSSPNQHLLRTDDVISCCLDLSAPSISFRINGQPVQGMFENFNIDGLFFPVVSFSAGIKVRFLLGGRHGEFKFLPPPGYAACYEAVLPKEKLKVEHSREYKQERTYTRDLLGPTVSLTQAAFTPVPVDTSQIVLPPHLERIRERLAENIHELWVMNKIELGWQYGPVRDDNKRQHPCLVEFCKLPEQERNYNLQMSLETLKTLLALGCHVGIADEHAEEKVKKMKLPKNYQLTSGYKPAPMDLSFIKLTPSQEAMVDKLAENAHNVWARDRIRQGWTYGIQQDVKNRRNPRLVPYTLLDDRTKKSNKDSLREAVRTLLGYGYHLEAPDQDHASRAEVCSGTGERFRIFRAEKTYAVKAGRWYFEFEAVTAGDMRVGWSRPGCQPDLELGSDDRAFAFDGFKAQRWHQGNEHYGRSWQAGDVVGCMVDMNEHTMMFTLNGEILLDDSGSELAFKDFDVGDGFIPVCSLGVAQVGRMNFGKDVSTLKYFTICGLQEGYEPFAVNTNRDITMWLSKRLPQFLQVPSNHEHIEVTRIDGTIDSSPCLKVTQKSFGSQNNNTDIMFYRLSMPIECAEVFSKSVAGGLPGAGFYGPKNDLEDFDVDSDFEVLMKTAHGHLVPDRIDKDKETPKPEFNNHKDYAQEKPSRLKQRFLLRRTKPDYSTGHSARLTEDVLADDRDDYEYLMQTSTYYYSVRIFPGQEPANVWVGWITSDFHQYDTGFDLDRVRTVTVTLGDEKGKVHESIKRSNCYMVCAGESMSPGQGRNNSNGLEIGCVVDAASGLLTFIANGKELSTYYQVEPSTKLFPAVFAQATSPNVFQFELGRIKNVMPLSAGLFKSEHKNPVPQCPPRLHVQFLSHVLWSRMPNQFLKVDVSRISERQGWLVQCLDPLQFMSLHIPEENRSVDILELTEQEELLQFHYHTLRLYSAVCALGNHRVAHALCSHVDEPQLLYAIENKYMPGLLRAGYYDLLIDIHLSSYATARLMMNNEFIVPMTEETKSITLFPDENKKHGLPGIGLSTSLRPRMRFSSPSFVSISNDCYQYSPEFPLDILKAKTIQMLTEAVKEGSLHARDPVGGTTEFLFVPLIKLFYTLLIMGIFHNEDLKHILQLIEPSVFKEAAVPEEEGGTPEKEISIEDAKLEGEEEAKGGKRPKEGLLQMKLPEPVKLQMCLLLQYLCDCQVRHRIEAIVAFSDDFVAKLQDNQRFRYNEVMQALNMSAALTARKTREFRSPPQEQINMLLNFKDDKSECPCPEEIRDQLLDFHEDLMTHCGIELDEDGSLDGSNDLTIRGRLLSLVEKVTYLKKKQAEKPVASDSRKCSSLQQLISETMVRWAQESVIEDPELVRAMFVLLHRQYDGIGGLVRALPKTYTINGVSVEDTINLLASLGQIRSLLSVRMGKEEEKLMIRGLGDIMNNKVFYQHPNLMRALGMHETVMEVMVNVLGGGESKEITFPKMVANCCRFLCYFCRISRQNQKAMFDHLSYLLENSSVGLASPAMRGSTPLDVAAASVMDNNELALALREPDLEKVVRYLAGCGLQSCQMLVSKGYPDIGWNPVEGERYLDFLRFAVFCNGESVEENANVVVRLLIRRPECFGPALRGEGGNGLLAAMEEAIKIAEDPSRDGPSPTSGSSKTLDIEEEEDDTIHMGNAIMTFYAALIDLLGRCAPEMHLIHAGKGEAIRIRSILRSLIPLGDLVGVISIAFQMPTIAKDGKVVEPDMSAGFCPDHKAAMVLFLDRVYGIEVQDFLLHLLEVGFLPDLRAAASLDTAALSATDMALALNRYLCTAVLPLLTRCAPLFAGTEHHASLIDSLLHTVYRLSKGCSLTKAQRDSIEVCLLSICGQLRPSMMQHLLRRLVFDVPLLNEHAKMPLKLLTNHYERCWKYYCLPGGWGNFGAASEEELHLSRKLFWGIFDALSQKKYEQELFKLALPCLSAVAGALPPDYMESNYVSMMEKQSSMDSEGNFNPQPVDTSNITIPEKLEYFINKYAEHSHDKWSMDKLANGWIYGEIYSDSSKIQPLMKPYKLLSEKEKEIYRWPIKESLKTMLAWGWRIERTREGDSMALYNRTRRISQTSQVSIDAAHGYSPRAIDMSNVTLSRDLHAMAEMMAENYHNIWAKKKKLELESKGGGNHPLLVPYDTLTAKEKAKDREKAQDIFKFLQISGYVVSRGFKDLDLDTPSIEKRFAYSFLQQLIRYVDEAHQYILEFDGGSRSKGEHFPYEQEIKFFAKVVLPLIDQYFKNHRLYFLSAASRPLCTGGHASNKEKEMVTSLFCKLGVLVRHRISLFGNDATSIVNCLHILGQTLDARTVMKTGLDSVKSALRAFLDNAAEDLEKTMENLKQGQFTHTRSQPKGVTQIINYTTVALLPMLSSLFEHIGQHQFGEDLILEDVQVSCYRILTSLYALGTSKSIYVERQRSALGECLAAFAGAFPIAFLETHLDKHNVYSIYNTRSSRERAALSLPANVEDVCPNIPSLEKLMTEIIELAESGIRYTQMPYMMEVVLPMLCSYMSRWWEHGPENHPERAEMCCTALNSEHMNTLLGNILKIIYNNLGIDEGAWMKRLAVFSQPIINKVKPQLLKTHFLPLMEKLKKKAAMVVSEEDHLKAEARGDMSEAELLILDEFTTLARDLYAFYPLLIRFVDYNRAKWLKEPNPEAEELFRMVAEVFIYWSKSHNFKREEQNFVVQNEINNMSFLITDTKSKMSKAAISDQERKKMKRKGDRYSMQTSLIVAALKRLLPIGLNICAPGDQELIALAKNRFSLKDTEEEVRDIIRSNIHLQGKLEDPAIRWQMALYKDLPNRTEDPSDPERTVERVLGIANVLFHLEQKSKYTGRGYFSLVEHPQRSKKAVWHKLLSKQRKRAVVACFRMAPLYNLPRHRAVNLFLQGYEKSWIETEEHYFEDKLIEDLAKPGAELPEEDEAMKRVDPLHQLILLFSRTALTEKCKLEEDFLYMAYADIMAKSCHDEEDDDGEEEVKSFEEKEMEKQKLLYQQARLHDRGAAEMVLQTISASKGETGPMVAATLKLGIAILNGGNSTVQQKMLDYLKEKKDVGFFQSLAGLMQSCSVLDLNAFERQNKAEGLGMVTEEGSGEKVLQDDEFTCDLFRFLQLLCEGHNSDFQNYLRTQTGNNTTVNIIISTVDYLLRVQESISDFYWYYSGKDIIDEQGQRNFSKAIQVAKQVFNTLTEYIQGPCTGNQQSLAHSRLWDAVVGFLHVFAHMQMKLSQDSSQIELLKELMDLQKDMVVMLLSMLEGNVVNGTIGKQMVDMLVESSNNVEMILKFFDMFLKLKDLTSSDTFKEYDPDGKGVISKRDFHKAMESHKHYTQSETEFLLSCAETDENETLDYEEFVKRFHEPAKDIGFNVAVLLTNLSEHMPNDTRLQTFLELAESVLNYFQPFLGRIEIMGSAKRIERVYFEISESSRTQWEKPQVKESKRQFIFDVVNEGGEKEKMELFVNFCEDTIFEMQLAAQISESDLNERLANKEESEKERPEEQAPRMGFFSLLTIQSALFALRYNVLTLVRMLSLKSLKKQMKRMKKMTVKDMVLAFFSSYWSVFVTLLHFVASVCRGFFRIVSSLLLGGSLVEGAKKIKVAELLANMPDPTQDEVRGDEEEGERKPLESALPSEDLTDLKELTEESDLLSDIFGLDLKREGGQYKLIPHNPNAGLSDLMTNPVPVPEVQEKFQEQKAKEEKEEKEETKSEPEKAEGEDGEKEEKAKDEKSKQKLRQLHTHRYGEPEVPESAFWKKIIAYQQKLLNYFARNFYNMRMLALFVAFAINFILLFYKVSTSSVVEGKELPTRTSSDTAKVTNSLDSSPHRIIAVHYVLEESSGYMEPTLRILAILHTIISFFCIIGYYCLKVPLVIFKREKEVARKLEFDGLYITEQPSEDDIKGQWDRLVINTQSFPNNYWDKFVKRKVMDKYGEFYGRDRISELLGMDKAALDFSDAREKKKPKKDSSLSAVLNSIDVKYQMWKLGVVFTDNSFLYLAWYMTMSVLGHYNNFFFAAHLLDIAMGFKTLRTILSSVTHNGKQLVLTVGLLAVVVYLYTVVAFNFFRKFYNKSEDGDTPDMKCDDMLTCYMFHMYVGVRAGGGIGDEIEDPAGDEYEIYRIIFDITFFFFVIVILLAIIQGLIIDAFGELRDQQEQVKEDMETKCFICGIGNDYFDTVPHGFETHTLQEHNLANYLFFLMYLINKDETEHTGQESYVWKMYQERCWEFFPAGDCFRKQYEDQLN

As a reminder, the pIC50 is the IC50 on a negative log10 scale, so that one unit is a factor of ten. Take (+)-ent-verticilide [ent-1]: the “RyR2-mediated Ca2+ spark frequency” value in data set [1] (25 μM, 10 minutes incubation, vs vehicle (DMSO)) is listed as “significantly inhibited”. Also, in data set [2], the “RyR2-mediated spontaneous calcium release” value is recorded as “significantly reduced”. The “potency of inhibition of mammalian cardiac ryanodine receptor calcium release channels” value in data set [2] is given as “sub-micromolar potency”. In addition, the negative logarithm of the IC50 (pIC50) in data set [3] is 7.00; in data set [4], 7.05. Also, the “half-life of ent-1” value is 6.9 h in data set [5] (3 mg/kg dose) and 6.4 h in data set [5] (30 mg/kg dose). Also, the “t1/2 of ent-1” value in data set [5] (mice) was 6.92 h. The “reduction in ventricular ectopy burden (ent-1)” value in data set [6] (30 mg/kg, same arrhythmia induction protocol) was 70%. Besides, in data set [6] (single dose study, 3 and 30 mg/kg i.p., Casq2-/- mice), the “antiarrhythmic efficacy in vivo (ent-1)” value is recorded as “antiarrhythmic efficacy”.

As for “(−)-nat-verticilide [reference compound]”, in data set [1], the “activity in the calcium spark assay (summary statement)” value is “none of these were active”. In addition, the “RyR2-mediated spontaneous calcium release” value in data set [2] is given as “no effect”.

(Values after patent US20240174718A1, “RYANODINE RECEPTOR INHIBITOR COMPOUNDS AND METHODS RELATING THERETO” (Vanderbilt University, priority 2022, published 2024).)
